# Patent publication US20030105595A1, “Chi square tests for gene expression” (priority 2001, published 2003)
# Experiments:
# Assay in all cases: multi-sample expression analysis, band intensity
# Assay type in all cases: in vivo
# Conditions in all cases: Pooled
# band b1i0_63.7 = tested on: band b1i0_63.7
# Text: (§1) To practice the invention, one skilled in the art obtains a source of biological samples, as well as expression information about the biological samples, i.e., expression information relative to one or more genes or polypeptides encoded therein. Data is collected for a particular phenotype appearing within a given population under study, whereby expression of that phenotype is to be determined within the biological sample under study. The phenotype is correlated to a specific genotype, which is then represented as a band with a given intentity, thus indicative of gene expression levels, and is then compared to control samples. Alternatively, the response of a gene to dosage with one or more drugs is determined by band intensity. The standard deviation from the mean (StdDev) is calculated for the control samples, and is fit to functional form in the following equation: […]
# (§2) A multi-sample expression analysis was run using the program described in Example 1. For each drug run, only runs for genes producing bands with a p-value<10^−5 in at least 2 of the following 3 comparisons were selected: low dose versus vehicle, high dose versus vehicle and low dose versus high dose. […] Since clusters found using all 13K bands included some of the best 2K bands, it was concluded that no essential signal was lost (see FIGS. 3 and 4). […] A comparison using the same analytic tests on only the best 2K bands. It can be seen that the Chi Square metric provides a better distinction between low and high doses than the correlation metric, which is not able to distinguish between the low dose and the high dose (see FIG. 6). The low-dose/high dose statistical variation is more pronounced when only the best 2K bands are selected.
# band b1i0_57.4 = tested on: band b1i0_57.4
# Text: as §1, §2
# band b1i0_53.0 = tested on: band b1i0_53.0
# Text: as §1, §2
# band b1i0_62.5 = tested on: band b1i0_62.5
# Text: as §1, §2
# band b1i0_69.4 = tested on: band b1i0_69.4
# Text: as §1, §2
# band b1i0_60.7 = tested on: band b1i0_60.7
# Text: as §1, §2
# band b1i0_54.5 = tested on: band b1i0_54.5
# Text: as §1, §2
# band b1i0_51.7 = tested on: band b1i0_51.7
# Text: as §1, §2
structure (smiles),measurement,setting,value
Nc1ccc(Cc2ccc(N)cc2)cc1 [Methylenedianiline],band intensity b1i0_63.7,"band b1i0_63.7; High dose, 1d",85.1
same,band intensity b1i0_63.7,"band b1i0_63.7; High dose, 3d",153.8
same,band intensity b1i0_63.7,"band b1i0_63.7; High dose, 7d",144.3
same,band intensity b1i0_63.7,"band b1i0_63.7; High dose, 14d",2.073
same,band intensity b1i0_63.7,"band b1i0_63.7; Low dose, 1d",24.89
same,band intensity b1i0_63.7,"band b1i0_63.7; Low dose, 3d",84.1
same,band intensity b1i0_63.7,"band b1i0_63.7; Low dose, 7d",287.2
same,band intensity b1i0_63.7,"band b1i0_63.7; Low dose, 14d",0.3527
same,band intensity b1i0_57.4,"band b1i0_57.4; High dose, 1d",1230
same,band intensity b1i0_57.4,"band b1i0_57.4; High dose, 3d",1407
same,band intensity b1i0_57.4,"band b1i0_57.4; High dose, 7d",1184
same,band intensity b1i0_57.4,"band b1i0_57.4; High dose, 14d",455.9
same,band intensity b1i0_57.4,"band b1i0_57.4; Low dose, 1d",1376
same,band intensity b1i0_57.4,"band b1i0_57.4; Low dose, 3d",1433
same,band intensity b1i0_57.4,"band b1i0_57.4; Low dose, 7d",1280
same,band intensity b1i0_57.4,"band b1i0_57.4; Low dose, 14d",789.2
same,band intensity b1i0_53.0,"band b1i0_53.0; High dose, 1d",101.1
same,band intensity b1i0_53.0,"band b1i0_53.0; High dose, 3d",98.11
same,band intensity b1i0_53.0,"band b1i0_53.0; High dose, 7d",113.8
same,band intensity b1i0_53.0,"band b1i0_53.0; High dose, 14d",60.92
same,band intensity b1i0_53.0,"band b1i0_53.0; Low dose, 1d",103.4
same,band intensity b1i0_53.0,"band b1i0_53.0; Low dose, 3d",101.1
same,band intensity b1i0_53.0,"band b1i0_53.0; Low dose, 7d",111.5
same,band intensity b1i0_53.0,"band b1i0_53.0; Low dose, 14d",55.87
same,band intensity b1i0_62.5,"band b1i0_62.5; High dose, 1d",59.42
same,band intensity b1i0_62.5,"band b1i0_62.5; High dose, 3d",70.64
same,band intensity b1i0_62.5,"band b1i0_62.5; High dose, 7d",71.55
same,band intensity b1i0_62.5,"band b1i0_62.5; High dose, 14d",185.7
same,band intensity b1i0_62.5,"band b1i0_62.5; Low dose, 1d",63.43
same,band intensity b1i0_62.5,"band b1i0_62.5; Low dose, 3d",69.92
same,band intensity b1i0_62.5,"band b1i0_62.5; Low dose, 7d",86.01
same,band intensity b1i0_62.5,"band b1i0_62.5; Low dose, 14d",207.6
same,band intensity b1i0_69.4,"band b1i0_69.4; High dose, 1d",262.2
same,band intensity b1i0_69.4,"band b1i0_69.4; High dose, 3d",329.9
same,band intensity b1i0_69.4,"band b1i0_69.4; High dose, 7d",290.2061
same,band intensity b1i0_69.4,"band b1i0_69.4; High dose, 14d",512.9
same,band intensity b1i0_69.4,"band b1i0_69.4; Low dose, 1d",349.4
same,band intensity b1i0_69.4,"band b1i0_69.4; Low dose, 3d",349.3
same,band intensity b1i0_69.4,"band b1i0_69.4; Low dose, 7d",303.1
same,band intensity b1i0_69.4,"band b1i0_69.4; Low dose, 14d",714.8
same,band intensity b1i0_60.7,"band b1i0_60.7; High dose, 1d",67.13
same,band intensity b1i0_60.7,"band b1i0_60.7; High dose, 3d",85.72
same,band intensity b1i0_60.7,"band b1i0_60.7; High dose, 7d",82.44
same,band intensity b1i0_60.7,"band b1i0_60.7; High dose, 14d",158.3
same,band intensity b1i0_60.7,"band b1i0_60.7; Low dose, 1d",66.66
same,band intensity b1i0_60.7,"band b1i0_60.7; Low dose, 3d",78.99
same,band intensity b1i0_60.7,"band b1i0_60.7; Low dose, 7d",79.32
same,band intensity b1i0_60.7,"band b1i0_60.7; Low dose, 14d",139.6
same,band intensity b1i0_54.5,"band b1i0_54.5; High dose, 1d",104.9
same,band intensity b1i0_54.5,"band b1i0_54.5; High dose, 3d",106
same,band intensity b1i0_54.5,"band b1i0_54.5; High dose, 7d",82.18
same,band intensity b1i0_54.5,"band b1i0_54.5; High dose, 14d",51.09
same,band intensity b1i0_54.5,"band b1i0_54.5; Low dose, 1d",123.7
same,band intensity b1i0_54.5,"band b1i0_54.5; Low dose, 3d",111.4
same,band intensity b1i0_54.5,"band b1i0_54.5; Low dose, 7d",86.49
same,band intensity b1i0_54.5,"band b1i0_54.5; Low dose, 14d",62.55
same,band intensity b1i0_51.7,"band b1i0_51.7; High dose, 1d",23.55
same,band intensity b1i0_51.7,"band b1i0_51.7; High dose, 3d",27.88
same,band intensity b1i0_51.7,"band b1i0_51.7; High dose, 7d",23.35
same,band intensity b1i0_51.7,"band b1i0_51.7; High dose, 14d",33.18
same,band intensity b1i0_51.7,"band b1i0_51.7; Low dose, 1d",22.28
same,band intensity b1i0_51.7,"band b1i0_51.7; Low dose, 3d",27.01
same,band intensity b1i0_51.7,"band b1i0_51.7; Low dose, 7d",21.37
same,band intensity b1i0_51.7,"band b1i0_51.7; Low dose, 14d",71.33
CC(=O)[C@@]1(O)CC[C@H]2[C@@H]3C=C(Cl)C4=CC(=O)[C@@H]5C[C@@H]5[C@]4(C)[C@H]3CC[C@@]21C [Cyproterone],band intensity b1i0_63.7,"band b1i0_63.7; High dose, 1d",51.36
same,band intensity b1i0_63.7,"band b1i0_63.7; High dose, 3d",111.8
same,band intensity b1i0_63.7,"band b1i0_63.7; High dose, 7d",154.7
same,band intensity b1i0_63.7,"band b1i0_63.7; High dose, 14d",18.52
same,band intensity b1i0_63.7,"band b1i0_63.7; Low dose, 1d",68.2
same,band intensity b1i0_63.7,"band b1i0_63.7; Low dose, 3d",110.4
same,band intensity b1i0_63.7,"band b1i0_63.7; Low dose, 7d",146
same,band intensity b1i0_57.4,"band b1i0_57.4; High dose, 1d",1105
same,band intensity b1i0_57.4,"band b1i0_57.4; High dose, 3d",1021
same,band intensity b1i0_57.4,"band b1i0_57.4; High dose, 7d",1105
same,band intensity b1i0_57.4,"band b1i0_57.4; High dose, 14d",775.5
same,band intensity b1i0_57.4,"band b1i0_57.4; Low dose, 1d",1285
same,band intensity b1i0_57.4,"band b1i0_57.4; Low dose, 3d",1338
same,band intensity b1i0_57.4,"band b1i0_57.4; Low dose, 7d",1437
same,band intensity b1i0_53.0,"band b1i0_53.0; High dose, 1d",93.39
same,band intensity b1i0_53.0,"band b1i0_53.0; High dose, 3d",99.72
same,band intensity b1i0_53.0,"band b1i0_53.0; High dose, 7d",99.01
same,band intensity b1i0_53.0,"band b1i0_53.0; High dose, 14d",40.97
same,band intensity b1i0_53.0,"band b1i0_53.0; Low dose, 1d",111.6
same,band intensity b1i0_53.0,"band b1i0_53.0; Low dose, 3d",99.85
same,band intensity b1i0_53.0,"band b1i0_53.0; Low dose, 7d",99.01
same,band intensity b1i0_62.5,"band b1i0_62.5; High dose, 1d",49.19
same,band intensity b1i0_62.5,"band b1i0_62.5; High dose, 3d",64.93
same,band intensity b1i0_62.5,"band b1i0_62.5; High dose, 7d",71.82
same,band intensity b1i0_62.5,"band b1i0_62.5; High dose, 14d",148.3
same,band intensity b1i0_62.5,"band b1i0_62.5; Low dose, 1d",62.41
same,band intensity b1i0_62.5,"band b1i0_62.5; Low dose, 3d",59.37
same,band intensity b1i0_62.5,"band b1i0_62.5; Low dose, 7d",70.85
same,band intensity b1i0_69.4,"band b1i0_69.4; High dose, 1d",254.9
same,band intensity b1i0_69.4,"band b1i0_69.4; High dose, 3d",250.7
same,band intensity b1i0_69.4,"band b1i0_69.4; High dose, 7d",317.9
same,band intensity b1i0_69.4,"band b1i0_69.4; High dose, 14d",528.3
same,band intensity b1i0_69.4,"band b1i0_69.4; Low dose, 1d",243.2
same,band intensity b1i0_69.4,"band b1i0_69.4; Low dose, 3d",270.7
same,band intensity b1i0_69.4,"band b1i0_69.4; Low dose, 7d",326.3
same,band intensity b1i0_60.7,"band b1i0_60.7; High dose, 1d",53.9
same,band intensity b1i0_60.7,"band b1i0_60.7; High dose, 3d",46.42
same,band intensity b1i0_60.7,"band b1i0_60.7; High dose, 7d",73.61
same,band intensity b1i0_60.7,"band b1i0_60.7; High dose, 14d",57.48
same,band intensity b1i0_60.7,"band b1i0_60.7; Low dose, 1d",76.15
same,band intensity b1i0_60.7,"band b1i0_60.7; Low dose, 3d",72.42
same,band intensity b1i0_60.7,"band b1i0_60.7; Low dose, 7d",80.22
same,band intensity b1i0_54.5,"band b1i0_54.5; High dose, 1d",98.48
same,band intensity b1i0_54.5,"band b1i0_54.5; High dose, 3d",80.83
same,band intensity b1i0_54.5,"band b1i0_54.5; High dose, 7d",81.21
same,band intensity b1i0_54.5,"band b1i0_54.5; High dose, 14d",69.78
same,band intensity b1i0_54.5,"band b1i0_54.5; Low dose, 1d",94.41
same,band intensity b1i0_54.5,"band b1i0_54.5; Low dose, 3d",93.73
same,band intensity b1i0_54.5,"band b1i0_54.5; Low dose, 7d",98.2
same,band intensity b1i0_51.7,"band b1i0_51.7; High dose, 1d",35.07
same,band intensity b1i0_51.7,"band b1i0_51.7; High dose, 3d",32.34
same,band intensity b1i0_51.7,"band b1i0_51.7; High dose, 7d",22.63
same,band intensity b1i0_51.7,"band b1i0_51.7; High dose, 14d",19.9
same,band intensity b1i0_51.7,"band b1i0_51.7; Low dose, 1d",19.27
same,band intensity b1i0_51.7,"band b1i0_51.7; Low dose, 3d",21.87
same,band intensity b1i0_51.7,"band b1i0_51.7; Low dose, 7d",12.77
